Assay results from paper PMC4552634, “A New Set of Chemical Starting Points with Plasmodium falciparum Transmission-Blocking Potential for Antimalarial Drug Discovery” (PLoS ONE, 2015).
Like-named read-outs stand apart in the source and are kept apart here.

Assays:
[1] = tested on: P. falciparum stage V gametocytes; assay: Gametocytocidal ATP bioluminescence assay (single point 5 μM and 1 μM, dose-response); type: cell-based, Plasmodium falciparum; details: for Ratio IC50 HepG2/IC50 P. falciparum: IC50 HepG2 divided by IC50 P. falciparum gametocytes
Procedure: Purified stage IV-V gametocytes were obtained as previously described [10]. Single point ATP bioluminescence assay and dose–response of positive hits was determined in accordance with the previously published protocol [10].

HepG2 cells = assay: Cytotoxicity in HepG2 cells (intracellular ATP, ATPlite, 48 h); type: cell-based, human; details: HepG2 cells; IC50 per ratio column head; unit inferred
[2] = tested on: P. falciparum asexual stages; details: asexual stages; TCAMS data; read-out: IC50 asexual; cited from earlier work
[3] = P. falciparum gametocytes, average, read-out: IC50 Pf Gametocytes average, IC50 (µM) average
[4] = sexual stages (gametocytes), dose-response, read-out: IC50 sexual

Row | SMILES | Ratio IC50 HepG2/IC50 P. falciparum [1] | IC50 [1, 3] | IC50 [1, 4] | IC50 (HepG2 cells) | IC50 [2]
1 | CCn1c(-c2nonc2N)nc2c(-c3cccc(NC(=O)Nc4cccc(Cl)c4)c3)ncc(OCCCN)c21 [TCMDC-136193] | 7 | 2.17 µM | 2.17 µM | 14500 nM | 941 nM
2 | CCn1c(-c2nonc2N)nc2c(-c3cccc(NC(=O)Nc4cccc(C#N)c4)c3)ncc(OCCCN)c21 [TCMDC-136195] | 7 | 3.51 µM | 3.52 µM | 24700 nM | 669 nM
3 | NCCCOc1cnc(-c2ccccc2)c2nc(-c3nonc3N)n(CCc3ccccc3)c12 [TCMDC-136216] | 4 | 1.4 µM | – | 5610 nM | 1270 nM
4 | O=C(Nc1ccc(F)c(C(F)(F)F)c1)NC1CCN(CCCCCNC(=O)C2CC2c2ccc(Cl)c(Cl)c2)CC1 (stereo not drawn) [TCMDC-136259] | 1.47 | 4.35 µM | – | 6400 nM | 663 nM
5 | COc1cc(Br)c(S(=O)(=O)n2cc(CN3CCC(N)CC3)c3cc(Cl)ccc32)cc1OC [TCMDC-136384] | 2.77 | 2.42 µM | 2.42 µM | 6700 nM | 985 nM
6 | CN1CCCN(Cc2cccc(-c3ccc(NS(=O)(=O)c4cccc5cccnc45)cc3)c2)CC1 [TCMDC-136481] | <1 | > 10 µM | – | 6500 nM | 957 nM
7 | Fc1ccc(N(c2nc(-c3cc(F)cc(C(F)(F)F)c3)cs2)C2CCNCC2)cc1 [TCMDC-136656] | 2 | 3.28 µM | 3.27 µM | 6600 nM | 956 nM
8 | CCNCc1cccc(-c2ccc3ccnc(N)c3c2)c1 [TCMDC-136869] | 7.56 | 1.66 µM | – | 12500 nM | 47 nM
9 | FC(F)(F)COc1c(CCNCCCCNCCc2ccc3ccccc3c2OCC(F)(F)F)ccc2ccccc12 [TCMDC-137169] | 28 | 0.1 µM | – | 2800 nM | 348 nM
10 | CCN(CC)CCOc1ccc(C(O)(C#CC(O)(c2ccccc2)c2ccc(OCCN(CC)CC)cc2)c2ccccc2)cc1 (stereo not drawn) [TCMDC-137197] | 5.34 | 0.69 µM | 0.687 µM | 3670 nM | 1310 nM
11 | CCN(CC)CCOc1ccc(C(O)(C#CC(O)(c2ccc(C)cc2)c2ccc(OCCN(CC)CC)cc2)c2ccc(C)cc2)cc1 (stereo not drawn) [TCMDC-137198] | 12 | 0.14 µM | – | 1620 nM | 903 nM
12 | CCN(CC)CCOc1ccc(C(O)(C#CC(O)(c2ccc(OCCN(CC)CC)cc2)c2ccc([N+](=O)[O-])cc2)c2ccc([N+](=O)[O-])cc2)cc1 (stereo not drawn) [TCMDC-137201] | 28 | 0.22 µM | 0.224 µM | 6200 nM | 1730 nM
13 | CCc1cc(COc2ccc(CNCCC(C)C)cc2I)c(OCc2ccccc2)c(COc2ccc(CNCCC(C)C)cc2I)c1 [TCMDC-137255] | 5.71 | 1.02 µM | 1.01 µM | 5800 nM | 1110 nM
14 | CC(C)NCc1ccc(OCc2cccc(COc3ccc(CNC(C)C)cc3I)c2)c(I)c1 [TCMDC-137259] | 23 | 0.21 µM | – | 4900 nM | 92 nM
15 | CC(C)CCNCc1ccc(OCc2cccc(COc3ccc(CNCCC(C)C)cc3I)c2)c(I)c1 [TCMDC-137274] | 14 | 0.37 µM | – | 5300 nM | 453 nM
16 | FC(F)(F)COc1ccc(CCNCCCCNCCc2ccc(OCC(F)(F)F)c3ccccc23)c2ccccc12 [TCMDC-137282] | 112 | 0.0267 µM | 0.027 µM | 3000 nM | 648 nM

Row | SMILES | Ratio IC50 HepG2/IC50 P. falciparum [1] | IC50 [1, 3] | IC50 [1, 4] | IC50 (HepG2 cells) | IC50 [2]
17 | FC(F)(F)COc1ccc2ccccc2c1CCNCCCCNCCc1c(OCC(F)(F)F)ccc2ccccc12 [TCMDC-137317] | 2.41 | 1.37 µM | – | 3300 nM | 426 nM
18 | COc1ccc2c(c1CCNCCCCNCCc1c(OC)ccc3c1CCCC3)CCCC2 [TCMDC-137324] | 5 | 0.15 µM | – | 750 nM | 376 nM
19 | C=CCOc1ccc2ccccc2c1CNCCCCCCNCc1c(OCC=C)ccc2ccccc12 [TCMDC-137340] | <6 | 0.25 µM | – | < 1560 nM | 859 nM
20 | CCCCCCN=C(N)c1ccc(OCCCCCOc2ccc(C(N)=NCCCCCC)cc2)cc1 [TCMDC-137619] | 17 | 0.31 µM | 0.309 µM | 5390 nM | 309 nM
21 | c1ccc2c(NCCCCCCCCCNc3ccnc4ccccc34)ccnc2c1 [TCMDC-137750] | 2.83 | 1.03 µM | 1.02 µM | 2900 nM | 115 nM
22 | c1ccc2c(NCCCCCCCCNc3ccnc4ccccc34)ccnc2c1 [TCMDC-137751] | 3.46 | 1.08 µM | – | 3740 nM | 155 nM
23 | CCOc1c(CCNCCCCNCCc2ccc3ccccc3c2OCC)ccc2ccccc12 [TCMDC-137759] | <9 | 0.17 µM | 0.173 µM | < 1560 nM | 596 nM
24 | CSc1ccc2ccccc2c1CCNCCCCNCCc1c(SC)ccc2ccccc12 [TCMDC-137763] | 7 | 0.23 µM | – | 1650 nM | 408 nM
25 | CCOc1ccc2ccccc2c1CNCCCCCCNCc1c(OCC)ccc2ccccc12 [TCMDC-137791] | 2.5 | 0.7 µM | – | 1750 nM | 576 nM
26 | COc1cc2ccccc2c(CNCCCCCCNCc2c(OC)c(OC)cc3ccccc23)c1OC [TCMDC-137795] | 4.5 | 1.05 µM | 1.04 µM | 4700 nM | 1110 nM
27 | COc1ccc2ccc(OC)c(CNCCCCCCNCc3c(OC)ccc4ccc(OC)cc34)c2c1 [TCMDC-137796] | 12 | 0.29 µM | 0.285 µM | 3400 nM | 699 nM
28 | COc1ccc2cc(CNCCCCCCNCc3ccc4cc(OC)ccc4c3)ccc2c1 [TCMDC-137797] | 4.48 | 0.67 µM | – | 3000 nM | 624 nM
29 | FC(F)(F)COc1ccc2ccccc2c1CNCCCCCCNCc1c(OCC(F)(F)F)ccc2ccccc12 [TCMDC-137816] | 8 | 0.37 µM | – | 3040 nM | 352 nM
30 | COc1ccc2c(c1CNCCCCCCNCc1c(OC)ccc3c1CCCC3)CCCC2 [TCMDC-137817] | 9 | 0.42 µM | – | 3830 nM | 907 nM
31 | COc1c(OC)c(OC)c2ccccc2c1CNCCCCCCNCc1c(OC)c(OC)c(OC)c2ccccc12 [TCMDC-137827] | 2.79 | 1.15 µM | 1.15 µM | 3200 nM | 759 nM
